Measured values from patent US20090069319A1, “IMIDAZOPYRIDINE ANALOGS AND THEIR USE AS AGONISTS OF THE WNT-BETA-CATENIN CELLULAR MESSAGING SYSTEM” (Wyeth, priority 2007, published 2009).

Assay: Functional Dkk1-LRP5-TCF-Luciferase Assay in U2OS Cells (table columns: A=MAX FOLD Induction/DMSO CONTROL; B=fold induction @ 2.0 uM; C=fold induction @ 20.0 uM)
Format: cell-based, Human
Settings: Homo sapiens, U2OS; for fold induction at 2 µM: 2.0 uM compound; for fold induction at 20 µM: 20.0 uM compound
Description: Biological Evaluation—Functional Dkk1-LRP5-TCF-Luciferase Assay in U2OS Cells
U2OS Human Bone derived cells (Osteosarcoma) are grown in McCoy's 5A Medium (Modified), with L-glutamine (GIBCO Cat No. 16600-082)+1% Pen-Strep+5% FBS) plated at 1×10^7 cells/T175 cm flask. The next day, the cells are co-transfected overnight with the following plasmids: (a) Test reporter (16×TCF-TK-FireFly-Luci), (b) Internal Control Reporter (TK-Renilla-Luci), (c) Wnt3a and (d) Dkk1. GIBCO's Lipofectamine 2000 and OptiMEM were used for the transfection. After a minimum of 4 hr of transfection at 37° C., the plasmid-transfected cells are trypsinized, counted, and suspended in freezing medium (95% FBS+5% DMSO). The reporter cells are frozen at 1×10^7/ml concentrations, aliquoted into 0.5 ml or 2.5 ml/tube and stored at −70° C.
The following day, test compounds are added under HTS setup by Plate Track into 384 well plates (white, TC treated, Falcon plate) such that the final concentration of the compounds in 20 μL/well cell will be 5 μg/ml (final concentration of DMSO=0.25% and final compound concentration=20 μM). Vials of frozen reporter cells are thawed by warming the vial in a 37° C. water bath for 60-120 seconds with some shaking until the cells formed a suspension. The thawed cells are transferred into a cold 50 ml (or larger) tube and mixed well by gentle pipetting. The appropriate amount of cold Phenol Red Free RPMI medium-1640 (GIBCO, Cat # 11835-030) with L-glutamine is added, both with ˜5% FBS (GIBCO-BRL, Cat. # 16000-044), so that 20 μl of the final cell suspension will contain ˜5,000 cells. The cell dilution is done such that the final concentration of FBS was ˜5%. Diluted cells (20 μl) are added into each well in a 384 well plate. The plate is incubated at 37° C. under 5% CO2 for ˜20 h. Bright-Glo substrate, 2.5 μl/well is added, and the Fire Fly Luciferase is measured using VLUX (60 second exposure) immediately after the substrate was added. Test compounds are dissolved in DMSO (100%) and added to specified wells. Raw luciferase signal data obtained as relative luminescence units (RLUs) for the test compounds are normalized to the signal of the mean of the sample reporter cell plate with DMSO.
Active compounds have TCF-luciferase ratios of 2.5 fold or greater over DMSO. All compounds show a signal increase of at least 10% compared to a signal with only DMSO added.
A=MAX FOLD Induction/DMSO CONTROL
B=TCF ACTIVITY/DMSO CONTROL Fold induction @ 2.0 uM C=TCF ACTIVITY/DMSO CONTROL Fold induction @ 20.0 uM

With `CC(=O)n1cc(-c2nc3c(-c4ccc5ccccc5c4)ccnc3n2C2CCNCC2)c2ccccc21` [2-(1-acetyl-1H-indol-3-yl)-7-(2-naphthyl)-3-piperidin-4-yl-3H-imidazo[4,5-b]pyridine] as the compound, how does the fold induction at 2 µM read?
The fold induction at 2 µM was 1.48.

Which results are given for `Clc1cncc(Cl)c1-c1nc2c(-c3ccc4ccccc4c3)ccnc2n1C1CCNCC1` [2-(3,5-dichloropyridin-4-yl)-7-(2-naphthyl)-3-piperidin-4-yl-3H-imidazo[4,5-b]pyridine]?
fold induction at 2 µM: 1.95; fold induction at 20 µM: 0.29

For `Cc1ccc(-c2nc3c(-c4ccc5ccccc5c4)ccnc3n2C2CCNCC2)c(C)c1` [2-(2,4-dimethylphenyl)-7-(2-naphthyl)-3-piperidin-4-yl-3H-imidazo[4,5-b]pyridine], which fold induction at 2 µM is on record?
The fold induction at 2 µM was 1.3.

With `CCCc1nc2cc(-c3ccc4ccccc4c3)cnc2n1C1CCNCC1` [6-(2-naphthyl)-3-piperidin-4-yl-2-propyl-3H-imidazo[4,5-b]pyridine] as the compound, how does the fold induction at 2 µM read?
The fold induction at 2 µM was 1.38.

And the fold induction at 20 µM?
Its fold induction at 20 µM is 0.01.

With `Cn1cc(-c2nc3cc(-c4ccc5ccccc5c4)cnc3n2C2CCNCC2)c2ccccc21` [2-(1-methyl-1H-indol-3-yl)-6-(2-naphthyl)-3-piperidin-4-yl-3H-imidazo[4,5-b]pyridine] as the compound, how does the fold induction at 2 µM read?
The fold induction at 2 µM was 1.04.

Which fold induction at 2 µM does the source give for `c1ccc2cc(-c3cnc4c(c3)ncn4C3CCNCC3)ccc2c1` [6-(2-naphthyl)-3-piperidin-4-yl-3H-imidazo[4,5-b]pyridine] here?
Its fold induction at 2 µM is 1.53.

Which fold induction at 2 µM does the source give for `O=C(N1CCC(n2cnc3c(-c4ccc5ccccc5c4)ccnc32)CC1)C(F)(F)F` [7-(2-naphthyl)-3-[1-(trifluoroacetyl)piperidin-4-yl]-3H-imidazo[4,5-b]pyridine] here?
The fold induction at 2 µM was 1.58.

What about the fold induction at 20 µM of the same compound?
The fold induction at 20 µM was 0.39.

With `c1ccc2cc(-c3ccnc4c3nc(-c3ncc[nH]3)n4C3CCNCC3)ccc2c1` [2-(1H-imidazol-2-yl)-7-(2-naphthyl)-3-piperidin-4-yl-3H-imidazo[4,5-b]pyridine] as the compound, how does the fold induction at 2 µM read?
The fold induction at 2 µM was 1.42.

With `COc1ccc2[nH]cc(-c3nc4c(-c5ccc6ccccc6c5)ccnc4n3C3CCNCC3)c2c1` [2-(5-methoxy-1H-indol-3-yl)-7-(2-naphthyl)-3-piperidin-4-yl-3H-imidazo[4,5-b]pyridine] as the compound, how does the fold induction at 2 µM read?
The fold induction at 2 µM was 1.2.

For `Fc1ccc(-c2nc3c(-c4ccc5ccccc5c4)ccnc3n2C2CCNCC2)c(F)c1` [2-(2,4-difluorophenyl)-7-(2-naphthyl)-3-piperidin-4-yl-3H-imidazo[4,5-b]pyridine], which fold induction at 2 µM is on record?
The fold induction at 2 µM was 1.42.

Which fold induction at 2 µM does the source give for `Oc1cccc(-c2nc3c(-c4ccc5ccccc5c4)ccnc3n2C2CCNCC2)c1O` [3-[7-(2-naphthyl)-3-piperidin-4-yl-3H-imidazo[4,5-b]pyridin-2-yl]benzene-1,2-diol] here?
The fold induction at 2 µM was 1.33.

Which fold induction at 2 µM does the source give for `FC(F)(F)c1cccc(-c2nc3c(-c4ccc5ccccc5c4)ccnc3n2C2CCNCC2)c1Cl` [2-[2-chloro-3-(trifluoromethyl)phenyl]-7-(2-naphthyl)-3-piperidin-4-yl-3H-imidazo[4,5-b]pyridine] here?
The fold induction at 2 µM was 1.21.

Which fold induction at 2 µM does the source give for `O=c1[nH]c2c(-c3ccc4ccccc4c3)ccnc2n1C1CCNCC1` [7-(2-naphthyl)-3-piperidin-4-yl-1,3-dihydro-2H-imidazo[4,5-b]pyridin-2-one] here?
Its fold induction at 2 µM is 1.29.

And the fold induction at 20 µM?
Its fold induction at 20 µM is 0.04.

With `N#Cc1ccc(-c2nc3c(-c4ccc5ccccc5c4)ccnc3n2C2CCNCC2)cc1` [4-[7-(2-naphthyl)-3-piperidin-4-yl-3H-imidazo[4,5-b]pyridin-2-yl]benzonitrile] as the compound, how does the fold induction at 2 µM read?
The fold induction at 2 µM was 1.58.

With `CN(C)C(=O)N1CCC(n2c(=O)n(C)c3c(-c4ccc5ccccc5c4)ccnc32)CC1` [N,N-dimethyl-4-[1-methyl-7-(2-naphthyl)-2-oxo-1,2-dihydro-3H-imidazo[4,5-b]pyridin-3-yl]piperidine-1-carboxamide] as the compound, how does the fold induction at 2 µM read?
Its fold induction at 2 µM is 1.19.

What about the fold induction at 20 µM of the same compound?
Its fold induction at 20 µM is 0.35.

Which fold induction at 2 µM does the source give for `c1ccc2cc(-c3ccnc4c3nc(-c3csc5ccccc35)n4C3CCNCC3)ccc2c1` [2-(1-benzothien-3-yl)-7-(2-naphthyl)-3-piperidin-4-yl-3H-imidazo[4,5-b]pyridine] here?
The fold induction at 2 µM was 1.28.

For `c1ccc2cc(-c3cnc4c(c3)nc(-c3cccc5cccnc35)n4C3CCNCC3)ccc2c1` [8-[6-(2-naphthyl)-3-piperidin-4-yl-3H-imidazo[4,5-b]pyridin-2-yl]quinoline], which fold induction at 2 µM is on record?
The fold induction at 2 µM was 1.61.

Which fold induction at 2 µM does the source give for `Fc1ccccc1-c1nc2c(-c3ccc4ccccc4c3)ccnc2n1C1CCNCC1` [2-(2-fluorophenyl)-7-(2-naphthyl)-3-piperidin-4-yl-3H-imidazo[4,5-b]pyridine] here?
The fold induction at 2 µM was 1.29.

Which fold induction at 2 µM does the source give for `Cc1ccc2[nH]cc(-c3nc4c(-c5ccc6ccccc6c5)ccnc4n3C3CCNCC3)c2c1` [2-(5-methyl-1H-indol-3-yl)-7-(2-naphthyl)-3-piperidin-4-yl-3H-imidazo[4,5-b]pyridine] here?
Its fold induction at 2 µM is 1.92.

Which fold induction at 2 µM does the source give for `Clc1cccc(-c2nc3c(-c4ccc5ccccc5c4)ccnc3n2C2CCNCC2)c1` [2-(3-chlorophenyl)-7-(2-naphthyl)-3-piperidin-4-yl-3H-imidazo[4,5-b]pyridine] here?
The fold induction at 2 µM was 1.5.

What does the source list for `O=[N+]([O-])c1cc(-c2nc3c(-c4ccc5ccccc5c4)ccnc3n2C2CCNCC2)ccc1N1CCOCC1` [2-(4-morpholin-4-yl-3-nitrophenyl)-7-(2-naphthyl)-3-piperidin-4-yl-3H-imidazo[4,5-b]pyridine]?
fold induction at 2 µM: 1.44; fold induction at 20 µM: 0.06

For `COc1ncccc1-c1nc2c(-c3ccc4ccccc4c3)ccnc2n1C1CCNCC1` [2-(2-methoxypyridin-3-yl)-7-(2-naphthyl)-3-piperidin-4-yl-3H-imidazo[4,5-b]pyridine], which fold induction at 2 µM is on record?
The fold induction at 2 µM was 1.5.

What does the source list for `c1coc(-c2nc3c(-c4ccc5ccccc5c4)ccnc3n2C2CCNCC2)c1` [2-(2-furyl)-7-(2-naphthyl)-3-piperidin-4-yl-3H-imidazo[4,5-b]pyridine]?
fold induction at 2 µM: 1.82; fold induction at 20 µM: 0.01

Which fold induction at 2 µM does the source give for `c1ccc2cc(-c3ccnc4c3nc(-c3ccc5c(c3)OCO5)n4C3CCNCC3)ccc2c1` [2-(1,3-benzodioxol-5-yl)-7-(2-naphthyl)-3-piperidin-4-yl-3H-imidazo[4,5-b]pyridine] here?
The fold induction at 2 µM was 1.36.

Which fold induction at 2 µM does the source give for `c1cncc(-c2nc3c(-c4ccc5ccccc5c4)ccnc3n2C2CCNCC2)c1` [7-(2-naphthyl)-3-piperidin-4-yl-2-pyridin-3-yl-3H-imidazo[4,5-b]pyridine] here?
Its fold induction at 2 µM is 1.21.

Which fold induction at 2 µM does the source give for `c1ccc2cc(-c3ccnc4c3nc(-c3ccc5c(c3)OCCO5)n4C3CCNCC3)ccc2c1` [2-(2,3-dihydro-1,4-benzodioxin-6-yl)-7-(2-naphthyl)-3-piperidin-4-yl-3H-imidazo[4,5-b]pyridine] here?
Its fold induction at 2 µM is 1.18.

With `FC(F)(F)Oc1cccc(-c2nc3c(-c4ccc5ccccc5c4)ccnc3n2C2CCNCC2)c1` [7-(2-naphthyl)-3-piperidin-4-yl-2-[3-(trifluoromethoxy)phenyl]-3H-imidazo[4,5-b]pyridine] as the compound, how does the fold induction at 2 µM read?
The fold induction at 2 µM was 1.52.

Which results are given for `CCNC(=O)N1CCC(n2cnc3c(-c4ccc5ccccc5c4)ccnc32)CC1` [N-ethyl-4-[7-(2-naphthyl)-3H-imidazo[4,5-b]pyridin-3-yl]piperidine-1-carboxamide]?
fold induction at 2 µM: 1.52; fold induction at 20 µM: 1.29

For `Clc1cccc(-c2nc3cc(-c4ccc5ccccc5c4)cnc3n2C2CCNCC2)c1` [2-(3-chlorophenyl)-6-(2-naphthyl)-3-piperidin-4-yl-3H-imidazo[4,5-b]pyridine], which fold induction at 2 µM is on record?
The fold induction at 2 µM was 0.98.

Which results are given for `O=C(NC1CCCCC1)N1CCC(n2cnc3c(-c4ccc5ccccc5c4)ccnc32)CC1` [N-cyclohexyl-4-[7-(2-naphthyl)-3H-imidazo[4,5-b]pyridin-3-yl]piperidine-1-carboxamide]?
fold induction at 2 µM: 0.97; fold induction at 20 µM: 0.03
